Source: patent publication EP4644391A1, “NOVEL PHENYLQUINOLONE COMPOUND HAVING ANTIBACTERIAL AND ANTICANCER FUNCTIONS, AND PREPARATION THEREOF” (Alphamol Science Ltd (Shanghai), priority 2022, dated 2024)
In brackets after ≈: the same amount, converted by molar mass. Like-named read-outs stand apart in the source and are kept apart here.

Legend:
Format in all cases: cell-based
E. coli ATCC 25922 = assay: In vitro antibacterial activity assay (MIC, broth dilution); conditions: Escherichia coli, ATCC25922
Source text: (§1) The method used to indicate the activity of the compounds in this example is to record the minimum inhibitory concentration (MIC) of the compounds against bacteria. The specific experimental method is as follows: • 1. The bacterial liquid cultured from a single colony was taken, and diluted into autoclaved CAMHB broth in a ratio of 1:1000, and mixed well. • 2. The prepared drug solution was filtered through a sterile 0.22µm syringe filter and placed in a sterile EP tube for later use. • 3. A 96-well plate was taken, and 20µL of drug solution (400µg/mL) was added to each well in the first column of the 96-well plate. Then, 180µL of diluted bacterial liquid was added and mixed well (Perform 3 replicate rows for each drug). The same process was performed for the hydrochloride drug. • 4. 100 µL of diluted bacterial liquid was added to each well in the remaining 11 columns of the 96-well plate. Drugs are the same as above. • 5. Serial dilution: 100µL of liquid was taken from the first column to the second column, mixed well, then 100µL of liquid was taken from the second column to the third column, mixed well, and so on, sequentially diluting down to the last column (column 12). After mixing column 12 well, 100µL of liquid thereof was discarded. The drug concentration in each well was decreased by two-fold serially (the concentration in the first well is 40µg/mL). • 6. Blank CAMHB broth without added bacteria liquid was added to 3 blank wells in the 96-well plate, as negative control. • 7. The diluted bacterial liquid was added to 3 blank wells in the 96-well plate, as positive control. • 8. Incubated at 37°C for 16 hours. • 9. Results reading: the minimum inhibitory concentration is the minimum drug concentration at which no bacterial growth is visible to the naked eye and without turbidity.

S. aureus ATCC 43300 = assay: as above; conditions: Staphylococcus aureus
Source text: as §1

Hela = assay: In vitro anticancer activity test (MTT cell proliferation assay); conditions: Homo sapiens, average proliferation inhibition rate at the dosage of 40 µM
Protocol: The anticancer activity of the compounds was tested using an in vitro cancer cell tests. The specific test method is as follows: • 1. Cell recovery and culture method: the cryovial was taken out from the liquid nitrogen container firstly, soaked directly in 37°C warm water, and shaked from time to time to let it thaw as soon as possible. Then, the cryovial was transferred to a clean bench, and the lid was open. The cell suspension was taken into a centrifuge tube using a rubber-tipped dropper and more than 10 times the culture medium was added, mixed well, and centrifuged at 50g for 5 minutes. Then, the supernatant was discarded, complete culture medium containing 10% fetal bovine serum was added to resuspend the cells, the cells was counted, the cell density was adjusted, and then inoculated into a culture bottle. The culture bottle was placed in a cell culture incubator at 5% CO2 and 37°C. The complete culture medium was replaced once the next day and the culture was continued. • 2. Cell passaging method: adherent cells in the logarithmic growth phase were placed in a clean bench, the original culture medium was discarded, and washed three times with 1×PBS. An appropriate amount of 0.25% trypsin digestion solution was added to moisten the cells, and then the trypsin solution was aspirated. The cells were placed in a cell culture incubator at 5% CO2 and 37°C for digestion for a suitable time, and observed under a microscope. When 90% of the cells become round, the cells were moved immediately to the clean bench and complete culture medium was added to terminate digestion. Then, the cells were dislodged by pipetting up and down with a rubber-tipped dropper to single cells. The cells were counted, and the cell density was adjusted. The cells were inoculated into a suitable culture bottle or dish, added enough complete culture medium, and placed in a cell culture incubator at 5% CO2 and 37°C for static culture. For suspension cells in the logarithmic phase, the original culture medium was directly centrifuged at 50g for 5 minutes, the supernatant was discarded, and the cells were washed once with PBS and centrifuged. After discarding the supernatant, the complete culture medium was added and the cells were dispersed using a rubber-tipped dropper. The cells are counted, and the cell density was adjusted. The cells were inoculated into appropriate culture bottles or culture dishes, and sufficient complete culture medium was added, and the cells were cultured in a cell culture incubator at 5% CO2 and 37°C. • 3. Cell proliferation assay: cells in good state in logarithmic phase were taken and appropriate amount of the cells was inoculated into 96-well plates according to the cell passage treatment method, with each well containing 180 µL complete medium. After the cells growth was recovered and the number of cells in each well is 5000±500, a drug was added for treatment. After drug treatment during the experimental time, MTT solution with a final concentration of 0.5 mg/mL was added to each well, and placed in a cell culture incubator at 5% CO2 and 37°C to allow a fully reaction of MTT with cells. After 4 hours, the solution in the 96-well plate was discarded, 100 µL of DMSO was added, and shaked to dissolve the formazan precipitated at the bottom of the plate, and the absorbance value of samples was detected at a wavelength of 570 nm using a microplate reader. Calculation method of cell viability rate: Viability rate = A sample group÷A control group × 100% [formula] • 4. Cell photography step: cells in good state in logarithmic phase were taken and an appropriate amount of cells was inoculated into 96-well plates according to the cell passage treatment method, with each well containing 180 µL complete medium. After the cells growth was recovered and the number of cells in each well is 5000 ± 500, a drug was added for treatment. […]

A. baumannii ATCC 17978 = assay: In vitro antibacterial activity assay (MIC, broth dilution); conditions: Acinetobacter baumannii, ATCC17978; Table 2; 37°C, 16 hours; read-out: G- bacteria MIC A. baumannii ATCC 17978
Source text: as §1

P.aeruginosa ATCC 27853 = assay: as above; conditions: Pseudomonas aeruginosa, ATCC27853; Table 2; 37°C, 16 hours; read-out: G- bacteria MIC P.aeruginosa ATCC 27853
Source text: as §1

E. feacium ATCC 700221 = assay: as above; conditions: read-out: G+ bacteria MIC E. feacium ATCC 700221
Source text: as §1

[1] = Table 3, read-out: E. coli ATCC 25922 MIC
[2] = ATCC43300, Table 3, read-out: S. aureus ATCC 43300 MIC
[3] = Table 2, 37°C, 16 hours, read-out: G- bacteria MIC E. coli ATCC 25922
[4] = ATCC43300, Table 1, 37°C, 16 hours, read-out: G+ bacteria MIC S. aureus ATCC 43300

| MIC (E. coli ATCC 25922; [1]) [mg/L] | MIC (S. aureus ATCC 43300; [2]) [mg/L] | MIC (A. baumannii ATCC 17978) [mg/L] | MIC (E. coli ATCC 25922; [3]) [mg/L] | MIC (P.aeruginosa ATCC 27853) [mg/L] | MIC (E. feacium ATCC 700221; Table 1, 37°C, 16 hours) [mg/L] | MIC (S. aureus ATCC 43300; [4]) [mg/L] | SMILES | inhibition at 40 µM (Hela) [%] | further results |
| --- | --- | --- | --- | --- | --- | --- | --- | --- | --- |
| ≥ 1 | ≤ 1 |  |  |  |  |  | COc1c(-c2ccc(N)c([N+](=O)[O-])c2)c(F)cc2c(=O)c(C(=O)NO)cn(C3CC3)c12 [Example 138] | ≥ 50 |  |
| ≤ 1 | ≤ 1 | 0.1 to 1 (≈ 0.208 to 2.08 µM) | ≤ 0.1 | 0.1 to 1 (≈ 0.208 to 2.08 µM) |  |  | Nc1cc(-c2c(F)cc3c(=O)c(C(=O)O)cn(C4CC4)c3c2F)ccc1C(=O)NCC(F)(F)F [Example 43] | ≥ 20 |  |
|  |  | ≤ 0.1 | ≤ 0.1 | 0.1 to 1 (≈ 0.209 to 2.09 µM) |  |  | O=C(O)c1cn(C2CC2)c2cc(-c3ccc(NC(=O)C(F)(F)F)c([N+](=O)[O-])c3)c(F)cc2c1=O [Example 35] |  |  |
| ≥ 1 | ≤ 1 |  |  |  |  |  | COc1cc(-c2cc3c(cc2F)c(=O)c(C(=O)O)cn3C2CC2)ccc1NC(=O)C(C)(C)C [Example 65] | ≥ 50 |  |
| ≥ 1 | ≤ 1 |  |  |  |  |  | CC(C)(C)OC(=O)Nc1ccc(-c2cc3c(cc2F)c(=O)c(C(=O)O)cn3C2CC2)cc1[N+](=O)[O-] [Example 40] | ≥ 50 |  |
|  |  |  |  |  | 1 to 8 (≈ 2.15 to 17.2 µM) | ≤ 0.1 | Cc1c(-c2ccc(C(=O)NCC(C)(C)C)c(N)c2)c(F)cc2c(=O)c(C(=O)O)cn(C3CC3)c12 [Example 49] |  |  |
| ≥ 1 | ≤ 1 |  |  |  |  |  | Nc1ccc(-c2c(F)cc3c(=O)c(C(=O)NO)cn(C4CC4)c3c2Cl)cc1[N+](=O)[O-] [Example 64] | ≥ 20 |  |
|  |  | 0.1 to 1 (≈ 0.196 to 1.96 µM) | ≤ 0.1 | 0.1 to 1 (≈ 0.196 to 1.96 µM) |  |  | COc1c(-c2ccc(NC(=O)C(F)(F)F)c([N+](=O)[O-])c2)c(F)cc2c(=O)c(C(=O)O)cn(C3CC3)c12 [Example 30, 1-cyclopropyl-6-fluoro-8-methoxy-7-(3-nitro-4-(2,2,2-triifluoroacetamido)phenyl)-4-oxo-1,4-dihydroquinolin-3-carboxylic acid] |  |  |
|  |  | 0.1 to 1 (≈ 0.208 to 2.08 µM) | ≤ 0.1 | 0.1 to 1 (≈ 0.208 to 2.08 µM) | 1 to 8 (≈ 2.08 to 16.6 µM) | ≤ 0.1 | NS(=O)(=O)c1ccc(-c2c(F)cc3c(=O)c(C(=O)O)cn(C4CC4)c3c2Cl)cc1[N+](=O)[O-] [Example 4, 8-chloro-1-cyclopropyl-6-fluoro-7-(3-nitro-4-sulfamoyphenyl)-4-oxo-1,4-dihydroquinolin-3-carboxylic acid] |  |  |

The next lines start with the molecule.

| SMILES | MIC (E. coli ATCC 25922; [1]) [mg/L] | MIC (S. aureus ATCC 43300; [2]) [mg/L] | MIC (A. baumannii ATCC 17978) [mg/L] | MIC (E. coli ATCC 25922; [3]) [mg/L] | MIC (P.aeruginosa ATCC 27853) [mg/L] | MIC (E. feacium ATCC 700221; Table 1, 37°C, 16 hours) [mg/L] | MIC (S. aureus ATCC 43300; [4]) [mg/L] | inhibition at 40 µM (Hela) [%] | further results |
| --- | --- | --- | --- | --- | --- | --- | --- | --- | --- |
| O=C(O)c1cn(C2CC2)c2c([N+](=O)[O-])c(-c3ccc(NC(=O)C(F)(F)F)c([N+](=O)[O-])c3)c(F)cc2c1=O [Example 32] |  |  |  |  |  | 1 to 8 (≈ 1.91 to 15.3 µM) | ≤ 0.1 |  |  |
| CCCCCCCNS(=O)(=O)c1ccc(-c2cc3c(cc2F)c(=O)c(C(=O)O)cn3C2CC2)cc1C(F)(F)F [Example 132] | ≥ 1 | ≤ 1 |  |  |  |  |  | ≥ 20 |  |
| CCCCCCCNS(=O)(=O)c1ccc(-c2cc3c(cc2F)c(=O)c(C(=O)O)cn3-c2ccc(F)cn2)cc1 [Example 19, 6-fluoro-1-(5-fluoropyridin-2-yl)-7-(4-(N-heptylsulfamoyl)phenyl)-4-oxo-1,4-dihydroquinolin-3-carboxylic acid] | ≥ 1 | ≤ 1 |  |  |  |  |  | ≥ 50 |  |
| CCCCCCCNS(=O)(=O)c1ccc(-c2cc3c(cc2F)c(=O)c(C(=O)O)cn3C2CC2)cc1 [Example 101] | ≥ 1 | ≤ 1 |  |  |  |  |  | ≥ 50 |  |
| N#Cc1cc(-c2cc3c(cc2F)c(=O)c(C(=O)O)cn3C2CC2)ccc1S(=O)(=O)NC1CCOCC1 [Example 5, 7-(3-cyano-4-(N-(tetrahydro-2H-pyran-4-yl)sulfamoyl)phenyl)-1-cyclopropyl-6-fluoro-4-oxo-1,4-dihydroquinolin-3-carboxylic acid] |  |  | ≤ 0.1 | ≤ 0.1 | 0.1 to 1 (≈ 0.195 to 1.95 µM) | 1 to 8 (≈ 1.95 to 15.6 µM) | ≤ 0.1 |  |  |
| O=C(O)c1cn(C2CC2)c2cc(-c3ccc(S(=O)(=O)NCCCl)cc3)c(F)cc2c1=O [Example 10, 7-(4-(N-(2-chloroethyl)sulfamoyl)phenyl)-1-cyclopropyl-6-fluoro-4-oxo-1,4-dihydroquinolin-3-carboxylic acid] |  |  |  |  |  |  |  |  | MIC (E. feacium ATCC 700221; 16 h): > 8 mg/L; MIC (S. aureus ATCC 43300; ATCC43300, 16 h, read-out: G+ bacteria MIC S. aureus ATCC 43300): ≤ 0.1 mg/L |
| COc1c(N2C[C@@H]3CCCN[C@@H]3C2)c(F)cc2c(=O)c(C(=O)O)cn(C3CC3)c12 [Moxifloxacin, reference compound] |  |  | ≤ 0.1 | ≤ 0.1 | 1 to 8 (≈ 2.49 to 19.9 µM) | > 8 | ≤ 0.1 |  |  |
| CCCNS(=O)(=O)c1ccc(-c2c(F)cc3c(=O)c(C(=O)O)cn(C4CC4)c3c2Cl)cn1 [Example 15, 8-chloro-1-cyclopropyl-6-fluoro-4-oxo-7-(6-(N-propylsulfamoyl)pyridin-3-yl)-1,4-dihydroquinolin-3-carboxylic acid] |  |  |  |  |  | > 8 | ≤ 0.1 |  |  |
| Nc1cc(-c2cc3c(cc2F)c(=O)c(C(=O)O)cn3C2CC2)ccn1 [Example 50] |  |  | ≤ 0.1 | ≤ 0.1 | 0.1 to 1 (≈ 0.295 to 2.95 µM) |  |  |  |  |
| O=C(O)c1cn(C2CC2)c2cc(-c3ccc(S(=O)(=O)NCCO)cc3)c(F)cc2c1=O [Example 13, 1-cyclopropyl-6-fluoro-7-(4-(N-(2-hydroxyethyl)sulfamoyl)phenyl)-4-oxo-1,4-dihydroquinolin-3-carboxylic acid] |  |  | 0.1 to 1 (≈ 0.224 to 2.24 µM) | ≤ 0.1 | 0.1 to 1 (≈ 0.224 to 2.24 µM) | 1 to 8 (≈ 2.24 to 17.9 µM) | ≤ 0.1 |  |  |
| CCCCCCCNS(=O)(=O)c1ccc(-c2cc3c(cc2F)c(=O)c(C(=O)O)cn3-c2ccc(F)cc2)cc1 [Example 12, 6-fluoro-1-(4-fluorophenyl)-7-(4-(N-heptylsulfamoyl)phenyl)-4-oxo-1,4-dihydroquinolin-3-carboxylic acid] | ≥ 1 | ≤ 1 |  |  |  |  |  | ≥ 50 |  |
